Experiments:
MtbPPAT [1] = molecular target: T1, MtbPPAT (Mycobacterium tuberculosis, UniProt P9WPA5); format: binding; conditions: for Affinity increase (KD lower) relative to parent indole fragment 12: KD by ITC vs KD of 12
MtbPPAT [2] = molecular target: T1, MtbPPAT; assay: MtbPPAT activity assay; format: biochemical; conditions: 1 mM compound, ATP 120, 240, 500 µM
wildtype Mtb H37RvMA = format: cell-based, Mycobacterium tuberculosis
[3] = test system: PPAT of Mycobacterium abscessus; conditions: cited from earlier work
Mycobacterium abscessus = conditions: cited from earlier work
MtbPPAT [4] = molecular target: T1, MtbPPAT; conditions: read-out: KD, previous estimates; ITC, near-identical conditions; cited from earlier work

T1 sequence (P9WPA5 whole entry, looked up, the tested form may be a part): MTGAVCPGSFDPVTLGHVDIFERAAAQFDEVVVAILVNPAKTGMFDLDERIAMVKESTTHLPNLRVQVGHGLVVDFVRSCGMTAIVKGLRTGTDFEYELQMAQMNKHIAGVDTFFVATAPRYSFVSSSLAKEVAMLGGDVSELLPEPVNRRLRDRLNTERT

O=C(O)c1cnn(-c2ccccc2)c1OCCc1c[nH]c2ccccc12 [compound 19]
Affinity increase (KD lower) relative to parent indole fragment 12 (MtbPPAT [1]): ≈ 25 fold

O=C(O)c1cnn(-c2ccccc2)c1OCCCc1c[nH]c2ccccc12 [compound 20]
Affinity increase (KD lower) relative to parent indole fragment 12 (MtbPPAT [1]): ≈ 65 fold
Ligand efficiency LE (MtbPPAT [1]; from direct ITC KD, Condition 1 (20 mM NaCl)): 0.24 kcal mol^−1 NHA^−1
Mode of inhibition of MtbPPAT activity (MtbPPAT [2]): ATP‐competitive manner
Effect of ATc on potency (wildtype Mtb H37RvMA): no effect
Affinity for M. abscessus PPAT [3]: low‐micromolar affinity
Whole-cell activity against M. abscessus (Mycobacterium abscessus): lacked whole‐cell activity

CC(C)(COP(=O)(O)OP(=O)(O)OC[C@H]1O[C@@H](n2cnc3c(N)ncnc32)[C@H](O)[C@@H]1OP(=O)(O)O)[C@@H](O)C(=O)NCCC(=O)NCCS [CoA, coenzyme A]
Kd (MtbPPAT [4]): ≥ 13 µM
